This passage reports MIC results from DBAASP.

Test in all cases: ≥ marks a high value that may be exact or a test limit, other limits are often not marked, values filed in µg/mL are converted to µM
Assay [1] relates to Candida albicans CCARM 14022.
For assay [2], the system named is Candida albicans CCARM 14020.
For assay [3], the system named is Candida albicans SC5314.
For assay [4], the system named is Malassezia sympodialis ATCC 42132.
Assay [5] deals with Escherichia coli CGSC 4908.
The test system of assay [6] is Salmonella enterica serovar typhimurium MS7953s.
The subject of assay [7] is Staphylococcus epidermidis C621.
Assay [8] concerns Pseudomonas aeruginosa K799.
The test system of assay [9] is Escherichia coli DC2.
Assay [10] has as its system Staphylococcus aureus C623.
For assay [11], the system named is Escherichia coli UB1005.
Assay [12] concerns Aeromonas salmonicida 97-4.
The test system of assay [13] is Aeromonas salmonicida 99-1.
Assay [14] concerns Salmonella enterica subsp. enterica serovar Typhimurium ATCC 14028s.
Assay [15] has as its system Pseudomonas aeruginosa Z61.
For assay [16], the system named is Candida albicans C627.
Assay [17] relates to Burkholderia cepacia ATCC 25416.
Assay [18] has as its system Pseudomonas aeruginosa ATCC 27853.
For assay [19], the system named is Pseudomonas aeruginosa H374.
Assay [20] deals with Pseudomonas aeruginosa H547.
The subject of assay [21] is Pseudomonas aeruginosa H744.
The test system of assay [22] is Salmonella enterica serovar Typhimurium.
Assay [23] has as its system Pseudomonas aeruginosa.
The test system of assay [24] is Pseudomonas aeruginosa M1426.
The subject of assay [25] is Pseudomonas aeruginosa M76.
In assay [26] the test system is Ralstonia pickettii.
Assay [27] concerns Achromobacter xylosoxidans.
Assay [28] deals with Pseudomonas aeruginosa M917.
The subject of assay [29] is Pseudomonas aeruginosa R70.
The subject of assay [30] is Stenotrophomonas maltophilia.
The subject of assay [31] is Pseudomonas aeruginosa M1251.
Assay [32] deals with Pseudomonas fluorescens.
The subject of assay [33] is Candida albicans.
The test system of assay [34] is Staphylococcus aureus.
In assay [35] the test system is Pseudomonas aeruginosa PAO1.
Assay [36] relates to Escherichia coli KCCM 11569.
Assay [37] concerns Enterococcus faecium CCARM 5029.
Assay [38] has as its system Enterococcus faecium CCARM 5028.
Assay [39] has as its system Bacillus subtilis KCCM 11495.

Converted amounts (≈) assume the structure as drawn. “And” between values parts separate entries of the source, which are not always exact repeats. Equal entries are not always repeated.

As usually defined, the MIC is the lowest concentration found to suppress growth. Low values mean a more susceptible organism, high ones a less susceptible organism. For `C[C@H](NC(=O)[C@H](Cc1cnc[nH]1)NC(=O)[C@H](CO)NC(=O)[C@@H](N)CC(=O)O)C(=O)N[C@@H](CCCCN)C(=O)N[C@@H](CCCN=C(N)N)C(=O)N[C@@H](Cc1cnc[nH]1)C(=O)N[C@@H](Cc1cnc[nH]1)C(=O)NCC(=O)N[C@@H](Cc1ccc(O)cc1)C(=O)N[C@@H](CCCCN)C(=O)N[C@@H](CCCN=C(N)N)C(=O)N[C@@H](CCCCN)C(=O)N[C@@H](Cc1ccccc1)C(=O)N[C@@H](Cc1cnc[nH]1)C(=O)N[C@@H](CCC(=O)O)C(=O)N[C@@H](CCCCN)C(=O)N[C@@H](Cc1cnc[nH]1)C(=O)N[C@@H](Cc1cnc[nH]1)C(=O)N[C@@H](CO)C(=O)N[C@@H](Cc1cnc[nH]1)C(=O)N[C@@H](CCCN=C(N)N)C(=O)NCC(=O)N[C@@H](Cc1ccc(O)cc1)C(N)=O` [DSHAKRHHGYKRKFHEKHHSHRGY], the minimum inhibitory concentration (MIC) in assay [1] is 3.73 µM and 10.5 µM; in [2], 3.73 µM and 10.5 µM; in assay [3], 3.73 µM and 10.5 µM; in [4], 5.01 µM (≈ 15.2 µg/mL).

As to `CC[C@H](C)[C@H](NC(=O)[C@H](C)NC(=O)CNC(=O)[C@H](CCCCN)NC(=O)[C@@H](NC(=O)[C@H](CC(C)C)NC(=O)[C@H](C)NC(=O)CNC(=O)[C@H](CC(C)C)NC(=O)[C@@H](N)Cc1ccccc1)[C@@H](C)CC)C(=O)N[C@@H](Cc1cnc[nH]1)C(=O)NCC(=O)NCC(=O)N[C@@H](CCCNC(=N)N)C(=O)N[C@@H](Cc1ccccc1)C(=O)N[C@H](C(=O)N[C@@H](Cc1cnc[nH]1)C(=O)NCC(=O)N[C@@H](CCSC)C(=O)N[C@H](C(=O)N[C@@H](CCC(N)=O)C(=O)N[C@@H](CC(N)=O)C(=O)N[C@@H](Cc1cnc[nH]1)C(=O)N[C@@H](Cc1cnc[nH]1)C(C)=O)[C@@H](C)CC)[C@@H](C)CC` [FLGALIKGAIHGGRFIHGMIQNHH], the MIC in assay [5] worked out at 24.4 µM (≈ 64 µg/mL); in [6] it was 24.4 µM (≈ 64 µg/mL); in assay [7], 12.2 µM (≈ 32 µg/mL); in assay [8], 24.4 µM (≈ 64 µg/mL); in [9], 24.4 µM (≈ 64 µg/mL); in [10], 12.2 µM (≈ 32 µg/mL). Further, the MIC in assay [11] came out at 24.4 µM (≈ 64 µg/mL); in assay [12], 24.4 µM (≈ 64 µg/mL); in assay [13], 24.4 µM (≈ 64 µg/mL); in assay [14], 24.4 µM (≈ 64 µg/mL); in assay [15], 12.2 µM (≈ 32 µg/mL); in assay [16], 24.4 µM (≈ 64 µg/mL).

Consider `CC[C@H](C)[C@H](NC(=O)[C@H](CC(C)C)NC(=O)[C@H](C)NC(=O)[C@@H]1CCCN1C(=O)[C@H](CC(C)C)NC(=O)CNC(=O)[C@@H](NC(=O)[C@@H](NC(=O)[C@H](CC(C)C)NC(=O)[C@@H](NC(=O)[C@H](CCCCN)NC(=O)[C@H](CCCCN)NC(=O)[C@H](C)NC(=O)[C@H](C)NC(=O)[C@H](CO)NC(=O)[C@@H](NC(=O)[C@H](CC(C)C)NC(=O)[C@H](CCCCN)NC(=O)[C@H](CCCCN)NC(=O)[C@@H](NC(=O)[C@H](Cc1ccccc1)NC(=O)[C@H](CO)NC(=O)[C@H](CCCCN)NC(=O)[C@H](Cc1c[nH]c2ccccc12)NC(=O)[C@@H](N)CCCCN)[C@@H](C)CC)[C@@H](C)O)C(C)C)[C@@H](C)O)[C@@H](C)O)C(=O)N[C@@H](CO)C(=O)O` [KWKSFIKKLTSAAKKVLTTGLPALIS], for which the minimal inhibitory concentration (MIC) in [17] was 22.6 µM (≈ 64 µg/mL); in [18] it was 4 µM (≈ 11.3 µg/mL); in [8], 1.77 µM (≈ 5 µg/mL); in assay [19] it was 1.41 µM (≈ 4 µg/mL); in assay [11], 0.707 µM (≈ 2 µg/mL); in assay [20] it was 2.83 µM (≈ 8 µg/mL). The MIC in [21] was found to be 1.41 µM (≈ 4 µg/mL); in assay [14] it was 1.41 µM (≈ 4 µg/mL); in assay [15], 1.06 µM (≈ 3 µg/mL).

For the compound `CC(C)C[C@H](NC(=O)[C@H](CC(C)C)NC(=O)[C@H](CCCCN)NC(=O)[C@H](C)NC(=O)[C@H](CC(C)C)NC(=O)[C@H](CCCCN)NC(=O)[C@H](CCCCN)NC(=O)[C@H](CC(C)C)NC(=O)[C@H](C)NC(=O)[C@H](CCCCN)NC(=O)[C@H](CCCCN)NC(=O)[C@H](Cc1ccc(O)cc1)NC(=O)[C@@H](N)CCCCN)C(N)=O` [KYKKALKKLAKLL], the MIC came out at 2.59 µM (≈ 4 µg/mL) in [22]; 5.18 µM (≈ 8 µg/mL) in assay [23]; 10.4 µM (≈ 16 µg/mL) in assay [24]; 2.59 µM (≈ 4 µg/mL) in [25]; 2.59 µM (≈ 4 µg/mL) in [11]; 2.59 µM (≈ 4 µg/mL) in [26]. Further, the MIC came to 5.18 µM (≈ 8 µg/mL) in assay [27]; 10.4 µM (≈ 16 µg/mL) in assay [28]; 1.29 µM (≈ 2 µg/mL) in assay [29]; 1.29 µM (≈ 2 µg/mL) in [30]; 1.29 µM (≈ 2 µg/mL) in assay [31]; 5.18 µM (≈ 8 µg/mL) in assay [32]. In addition, the minimum inhibitory concentration (MIC) in [33] was 5.18 µM (≈ 8 µg/mL); in [34] it was 10.4 µM (≈ 16 µg/mL); in assay [35] it was 2.59 µM (≈ 4 µg/mL).

For `CC(C)C[C@H](NC(=O)CNC(=O)[C@H](CCCCN)NC(=O)[C@H](CCCCN)NC(=O)[C@H](CC(C)C)NC(=O)[C@H](CC(C)C)NC(=O)[C@H](C)NC(=O)[C@H](CC(N)=O)NC(=O)[C@H](CC(C)C)NC(=O)[C@@H](N)Cc1c[nH]c2ccccc12)C(=O)N[C@@H](CC(N)=O)C(=O)N[C@@H](CS)C(=O)N[C@@H](C)C(=O)N[C@@H](CCCCN)C(=O)NCC(=O)N[C@H](C(=O)N[C@@H](CC(C)C)C(=O)N[C@@H](C)C(N)=O)C(C)C` [WLNALLKKGLNCAKGVLA], the minimal inhibitory concentration (MIC) in assay [36] is 1.48 µM (≈ 2.83 µg/mL); in assay [37] it was 0.74 µM and 1.48 µM; in assay [38] it was 0.74 µM and 1.48 µM; in assay [39] it was 2.96 µM (≈ 5.65 µg/mL).
